From patent US8802700B2 (Vertex Pharmaceuticals Incorporated, priority 2010, dated 2014)

molecular target: T1, ΔF508-CFTR (Homo sapiens, UniProt P13569, DEL508-508); experiment: Membrane potential optical assay (FRET voltage-sensor dyes, VIPR), identification of potentiator compounds; format: cell-based; conditions: Table 3; assay not given
T1 construct: expressed in transfected cells
Procedure, shortened: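 Potentiator screen measured membrane potential via FRET between CC2-DMPE donor and DiSBAC2(3), read on VIPR II. Compound went in with the first addition of chloride-free gluconate bath; cells were ΔF508-CFTR-expressing NIH3T3 mouse fibroblasts, temperature-corrected at 27 °C for 24 h.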

T1 sequence (P13569 with tags, fused parts or gaps DEL508-508): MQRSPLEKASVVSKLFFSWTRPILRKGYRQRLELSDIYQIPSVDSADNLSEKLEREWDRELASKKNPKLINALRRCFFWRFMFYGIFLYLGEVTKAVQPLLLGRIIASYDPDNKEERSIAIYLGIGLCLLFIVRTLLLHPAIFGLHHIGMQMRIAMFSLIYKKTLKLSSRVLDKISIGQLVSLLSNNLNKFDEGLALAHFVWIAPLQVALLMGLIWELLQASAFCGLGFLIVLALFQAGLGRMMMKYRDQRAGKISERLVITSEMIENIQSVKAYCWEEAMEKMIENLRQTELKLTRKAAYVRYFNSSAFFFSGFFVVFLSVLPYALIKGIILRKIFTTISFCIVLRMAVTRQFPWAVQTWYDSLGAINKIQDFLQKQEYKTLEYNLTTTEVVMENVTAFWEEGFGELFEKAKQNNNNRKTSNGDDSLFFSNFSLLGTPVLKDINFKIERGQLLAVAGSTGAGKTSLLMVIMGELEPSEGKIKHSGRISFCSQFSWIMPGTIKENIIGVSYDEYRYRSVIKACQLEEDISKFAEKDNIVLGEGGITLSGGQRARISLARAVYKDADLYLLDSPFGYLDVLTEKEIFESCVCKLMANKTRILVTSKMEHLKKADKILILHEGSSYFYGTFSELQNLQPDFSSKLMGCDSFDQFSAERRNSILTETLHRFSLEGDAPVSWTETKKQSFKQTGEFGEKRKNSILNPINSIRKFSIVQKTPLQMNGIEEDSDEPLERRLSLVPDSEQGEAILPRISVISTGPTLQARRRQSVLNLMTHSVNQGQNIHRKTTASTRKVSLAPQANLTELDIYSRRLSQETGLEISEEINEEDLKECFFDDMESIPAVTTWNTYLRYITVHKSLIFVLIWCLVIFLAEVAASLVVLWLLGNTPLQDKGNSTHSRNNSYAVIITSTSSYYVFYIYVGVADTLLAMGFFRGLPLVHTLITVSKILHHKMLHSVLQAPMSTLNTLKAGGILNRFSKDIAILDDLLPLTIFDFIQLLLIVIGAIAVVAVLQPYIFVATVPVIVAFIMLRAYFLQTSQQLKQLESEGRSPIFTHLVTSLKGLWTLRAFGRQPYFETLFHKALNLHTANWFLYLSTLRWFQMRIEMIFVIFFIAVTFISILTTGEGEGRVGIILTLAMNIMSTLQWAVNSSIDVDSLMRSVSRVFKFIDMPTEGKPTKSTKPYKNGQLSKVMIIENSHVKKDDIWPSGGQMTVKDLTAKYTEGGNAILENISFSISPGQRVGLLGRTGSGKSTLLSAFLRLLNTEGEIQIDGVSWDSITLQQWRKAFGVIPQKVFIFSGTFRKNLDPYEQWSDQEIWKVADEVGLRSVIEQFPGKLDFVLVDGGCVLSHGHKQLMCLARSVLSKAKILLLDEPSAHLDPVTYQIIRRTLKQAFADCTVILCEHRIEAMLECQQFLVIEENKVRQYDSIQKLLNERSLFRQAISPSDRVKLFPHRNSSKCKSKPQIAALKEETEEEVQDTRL

`O=C(Nc1cccnc1Oc1ccc(F)cc1F)c1c[nH]c2ccccc2c1=O` [Compound 385, N-[2-(2,4-difluorophenoxy)-3-pyridyl]-4-oxo-1H-quinoline-3-carboxamide] showed an EC50 of under 10 µM.

same assay, conditions: Table 3; assay not given; read-out: % Activity (% Efficacy, relative efficacy)

`CC1CCN(c2ccccc2NC(=O)c2c[nH]c3ccccc3c2=O)CC1` [Compound 372, N-[2-(4-methyl-1-piperidyl)phenyl]-4-oxo-1H-quinoline-3-carboxamide] and `CCOc1ccccc1NC(=O)c1c[nH]c2ccccc2c1=O` [Compound 380, N-(2-ethoxyphenyl)-4-oxo-1H-quinoline-3-carboxamide] fall in the same range of Emax: 25 to 100% for the first, 25 to 100% for the second.

`O=C(Nc1cccc2c1CCC2)c1c[nH]c2ccccc2c1=O` [Compound 373, N-indan-4-yl-4-oxo-1H-quinoline-3-carboxamide] and `O=C(Nc1ccc2c(c1)CCCC2)c1c[nH]c2ccccc2c1=O` [Compound 375, 1,4-dihydro-N-(1,2,3,4-tetrahydronaphthalen-6-yl)-4-oxoquinoline-3-carboxamide] fall in the same range of Emax: 25 to 100% for the first, 25 to 100% for the second.

Compared with `CSc1nc2ccccc2c(O)c1C(=O)Nc1ccc2cc[nH]c2c1` [Compound 374, 4-hydroxy-N-(1H-indol-6-yl)-2-methylsulfanyl-quinoline-3-carboxamide], `O=C(Nc1ccc2cc[nH]c2c1)c1cnc2c(F)cc(F)cc2c1O` [Compound 377, 6,8-difluoro-4-hydroxy-N-(1H-indol-6-yl)quinoline-3-carboxamide] is higher in Emax: under 25% for the first, 25 to 100% for the second.

First: O=C(Nc1ccc2oc(-c3ccccc3)nc2c1)c1c[nH]c2ccccc2c1=O [Compound 376, 4-oxo-N-(2-phenylbenzooxazol-5-yl)-1H-quinoline-3-carboxamide]
Second: O=C(Nc1ccc(-c2ccccc2)cc1)c1c[nH]c2ccccc2c1=O [Compound 397, 4-oxo-N-(4-phenylphenyl)-1H-quinoline-3-carboxamide]
The Emax of the first is lower: under 25% for the first, 25 to 100% for the second.

First: COc1ccc(NC(=O)c2c[nH]c3ccccc3c2=O)cc1N [Compound 378, N-(3-amino-4-methoxy-phenyl)-4-oxo-1H-quinoline-3-carboxamide]
Second: CC(C)(C)c1ccc(NC(=O)c2c[nH]c3ccccc3c2=O)cc1CN [Compound 390, N-[3-(Aminomethyl)-4-tert-butyl-phenyl]-4-oxo-1H-quinoline-3-carboxamide]
The Emax of the first is higher: 25 to 100% for the first, under 25% for the second.

`CC(=O)Nc1cc(NC(=O)c2c[nH]c3ccccc3c2=O)cc(C(F)(F)F)c1` [Compound 379, N-[3-acetylamino-5-(trifluoromethyl)phenyl]-4-oxo-1H-quinoline-3-carboxamide] and `Cc1c(NC(=O)c2c[nH]c3ccccc3c2=O)cccc1C(F)(F)F` [Compound 387, N-[2-methyl-3-(trifluoromethyl)phenyl]-4-oxo-1H-quinoline-3-carboxamide] fall in the same range of Emax: 25 to 100% for the first, 25 to 100% for the second.

`CC(C)(C)c1cc2cc[nH]c2cc1NC(=O)c1c[nH]c2ccccc2c1=O` [Compound 381, 4-oxo-N-(5-tert-butyl-1H-indol-6-yl)-1H-quinoline-3-carboxamide] and `COc1cccc(OC)c1-c1cc2cc[nH]c2cc1NC(=O)c1c[nH]c2ccccc2c1=O` [Compound 404, N-[5-(2,6-dimethoxyphenyl)-1H-indol-6-yl]-4-oxo-1H-quinoline-3-carboxamide] fall in the same range of Emax: 25 to 100% for the first, 25 to 100% for the second.

`CCCc1ccc(NC(=O)c2c[nH]c3ccccc3c2=O)cc1NC(=O)OCC` [Compound 382, [5-[(4-oxo-1H-quinolin-3-yl)carbonylamino]-2-propyl-phenyl]aminoformic acid ethyl ester] and `CCc1c[nH]c2cc(NC(=O)c3c[nH]c4ccccc4c3=O)ccc12` [Compound 383, N-(3-ethyl-1H-indol-6-yl)-4-oxo-1H-quinoline-3-carboxamide] fall in the same range of Emax: 25 to 100% for the first, 25 to 100% for the second.

`O=C(Nc1ccccc1-c1cc(F)ccc1F)c1c[nH]c2ccccc2c1=O` [Compound 384, N-[2-(2,5-difluorophenyl)phenyl]-4-oxo-1H-quinoline-3-carboxamide] and `Cc1cccc(-c2ccccc2NC(=O)c2c[nH]c3ccccc3c2=O)c1C` [Compound 401, N-[2-(2,3-dimethylphenyl)phenyl]-4-oxo-1H-quinoline-3-carboxamide] fall in the same range of Emax: 25 to 100% for the first, 25 to 100% for the second.

`O=C(Nc1cccnc1Oc1ccc(F)cc1F)c1c[nH]c2ccccc2c1=O` [Compound 385, N-[2-(2,4-difluorophenoxy)-3-pyridyl]-4-oxo-1H-quinoline-3-carboxamide] and `CCOc1ccccc1-c1ccc(N)cc1NC(=O)c1c[nH]c2ccccc2c1=O` [Compound 393, N-[5-amino-2-(2-ethoxyphenyl)-phenyl]-4-oxo-1H-quinoline-3-carboxamide] fall in the same range of Emax: 25 to 100% for the first, 25 to 100% for the second.

First: CC1(C)CNc2cc(NC(=O)c3c[nH]c4ccccc4c3=O)ccc21 [Compound 386, N-(3,3-dimethylindolin-6-yl)-4-oxo-1H-quinoline-3-carboxamide]
Second: O=C(Nc1ccc(Cl)nc1)c1c[nH]c2ccccc2c1=O [Compound 392, N-(6-chloro-3-pyridyl)-4-oxo-1H-quinoline-3-carboxamide]
The Emax of the first is higher: 25 to 100% for the first, under 25% for the second.

`O=C(Nc1ccccc1-c1ccc(OC(F)(F)F)cc1)c1c[nH]c2ccccc2c1=O` [Compound 388, 4-oxo-N-[2-[4-(trifluoromethoxy)phenyl]phenyl]-1H-quinoline-3-carboxamide] and `CC(C)Cc1ccc(-c2ccccc2NC(=O)c2c[nH]c3ccccc3c2=O)cc1` [Compound 391, N-[2-(4-isobutylphenyl)phenyl]-4-oxo-1H-quinoline-3-carboxamide] fall in the same range of Emax: 25 to 100% for the first, 25 to 100% for the second.

Compared with `O=C(Nc1cccc(Cc2ccccc2)c1)c1c[nH]c2ccccc2c1=O` [Compound 389, N-(3-benzylphenyl)-4-oxo-1H-quinoline-3-carboxamide], `O=C(Nc1ccc(-c2ccccc2)cn1)c1c[nH]c2ccccc2c1=O` [Compound 402, 4-oxo-N-(5-phenyl-2-pyridyl)-1H-quinoline-3-carboxamide] is lower in Emax: 25 to 100% for the first, under 25% for the second.

First: Cc1ccc2c(c1)c(=O)c(C(=O)Nc1ccccc1)cn2C [Compound 394, 1,6-dimethyl-4-oxo-N-phenyl-1H-quinoline-3-carboxamide]
Second: CNc1ccc(C(C)C)c(NC(=O)c2c[nH]c3ccccc3c2=O)c1 [Compound 399, N-(2-isopropyl-5-methylamino-phenyl)-4-oxo-1H-quinoline-3-carboxamide]
The Emax of the first is lower: under 25% for the first, 25 to 100% for the second.

`O=C(Nc1cc(O)c(C23CC4CC(CC(C4)C2)C3)cc1F)c1cnc2ccccc2c1O` [Compound 395, N-[4-(1-adamantyl)-2-fluoro-5-hydroxy-phenyl]-4-hydroxy-quinoline-3-carboxamide] and `CC1(c2cc(F)c(NC(=O)c3cnc4ccccc4c3O)cc2O)CCCCCCC1` [Compound 403, N-[2-fluoro-5-hydroxy-4-(1-methylcyclooctyl)-phenyl]-4-hydroxy-quinoline-3-carboxamide] fall in the same range of Emax: 25 to 100% for the first, 25 to 100% for the second.

First: CC(C)(CNC(=O)OCC1CCOC1)c1ccc(NC(=O)c2c[nH]c3ccccc3c2=O)cc1 (stereo not shown) [Compound 396, [2-methyl-2-[4-[(4-oxo-1H-quinolin-3-yl)carbonylamino]phenyl]-propyl]aminoformic acid tetrahydrofuran-3-ylmethyl ester]
Second: O=C(Nc1ccc(N2CCOCC2)nc1)c1c[nH]c2ccccc2c1=O [Compound 400, N-(6-morpholino-3-pyridyl)-4-oxo-1H-quinoline-3-carboxamide]
The Emax of the first is higher: 25 to 100% for the first, under 25% for the second.

Compound `Cc1ccc(S(=O)(=O)Nc2ccccc2NC(=O)c2c[nH]c3ccccc3c2=O)cc1` [Compound 398, 4-oxo-N-[2-(p-tolylsulfonylamino)phenyl]-1H-quinoline-3-carboxamide] has an Emax of 25 to 100%.
